pEC50: −log10 of the molar value. Like-named read-outs stand apart in the source and are kept apart here. One block for each molecule: values may come before it.
Molecular target: T1, CFTR (Homo sapiens, UniProt P13569, DEL508-508)
T1 construct: endogenous in cells; host or cells: primary human bronchial epithelial cells from CF subjects (F508del/MF-HBE), differentiated at air-liquid interface
Test: HBE assay: Ussing chamber assay of CFTR-mediated short-circuit currents
Assay type: cell-based
Details: for activation at 10 µM: read-out: HBE Activity at 10 μM (%); for pEC50: read-out: HBE EC50
Procedure, shortened: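 CFTR-mediated Isc (μA/cm²) equals the peak response to apical 20 μM forskolin minus the residual after a 20 μM each BPO/GlyH-101/CFTR inhibitor 172 cocktail, recorded in Ussing chambers at Vhold 0 mV, 37 °C, pH 7.4, with 30 μM apical amiloride. Cells were F508del/MF HBE cultures preincubated 18-24 h with corrector (concentration range or 10 μM) plus 1 μM ivacaftor in 20% human serum.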

[1] = Table 11, read-out: HBE Max Activity (%)
[2] = HBE assay, read-out: HBE Max activity (%)
[3] = Table 12, read-out: HBE Max Activity (%)

T1 sequence (P13569 with tags, fused parts or gaps DEL508-508): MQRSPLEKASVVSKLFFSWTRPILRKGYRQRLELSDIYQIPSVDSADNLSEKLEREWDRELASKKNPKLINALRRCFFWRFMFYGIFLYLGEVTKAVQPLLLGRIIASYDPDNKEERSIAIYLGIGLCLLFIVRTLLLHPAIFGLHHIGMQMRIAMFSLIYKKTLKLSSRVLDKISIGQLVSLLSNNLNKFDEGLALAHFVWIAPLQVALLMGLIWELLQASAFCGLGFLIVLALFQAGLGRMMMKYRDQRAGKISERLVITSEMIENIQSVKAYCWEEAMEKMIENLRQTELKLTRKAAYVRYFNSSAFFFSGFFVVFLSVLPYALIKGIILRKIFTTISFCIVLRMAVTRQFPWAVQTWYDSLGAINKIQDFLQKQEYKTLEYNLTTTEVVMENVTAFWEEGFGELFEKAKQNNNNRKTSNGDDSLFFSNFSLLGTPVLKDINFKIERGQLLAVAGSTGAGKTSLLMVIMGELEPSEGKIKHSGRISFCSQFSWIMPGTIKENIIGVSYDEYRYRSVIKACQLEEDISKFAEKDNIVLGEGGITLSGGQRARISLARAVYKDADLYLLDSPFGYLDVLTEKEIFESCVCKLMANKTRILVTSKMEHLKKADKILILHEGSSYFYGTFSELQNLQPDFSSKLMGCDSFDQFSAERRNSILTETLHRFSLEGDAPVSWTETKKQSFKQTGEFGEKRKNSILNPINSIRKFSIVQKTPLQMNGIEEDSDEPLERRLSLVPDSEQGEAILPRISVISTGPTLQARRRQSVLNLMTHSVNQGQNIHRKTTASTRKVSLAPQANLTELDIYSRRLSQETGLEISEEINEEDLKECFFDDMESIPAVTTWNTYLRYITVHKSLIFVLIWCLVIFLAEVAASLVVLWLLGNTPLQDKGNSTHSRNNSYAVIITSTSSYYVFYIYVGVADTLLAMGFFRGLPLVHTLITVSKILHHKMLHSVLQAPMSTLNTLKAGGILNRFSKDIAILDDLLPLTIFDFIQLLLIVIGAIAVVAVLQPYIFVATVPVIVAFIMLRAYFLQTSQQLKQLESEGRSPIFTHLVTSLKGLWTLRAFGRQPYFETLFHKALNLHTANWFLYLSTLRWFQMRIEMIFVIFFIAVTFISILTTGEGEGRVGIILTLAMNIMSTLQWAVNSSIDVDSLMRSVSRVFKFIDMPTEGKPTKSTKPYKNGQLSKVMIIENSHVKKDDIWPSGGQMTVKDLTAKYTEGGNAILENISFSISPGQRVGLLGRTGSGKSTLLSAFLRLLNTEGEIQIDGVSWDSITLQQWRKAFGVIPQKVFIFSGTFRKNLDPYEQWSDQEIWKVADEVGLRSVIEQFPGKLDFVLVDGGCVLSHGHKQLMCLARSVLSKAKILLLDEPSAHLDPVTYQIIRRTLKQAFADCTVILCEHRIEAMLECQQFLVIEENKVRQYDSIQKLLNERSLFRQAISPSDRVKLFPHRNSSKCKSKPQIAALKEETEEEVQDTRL

activation at 10 µM (Table 13, at 10 μM): > 600%
SMILES: Cc1cccc(C)c1-c1cc2nc(n1)NS(=O)(=O)c1cccc(c1)C(=O)N(Cc1ccc(N3CCC(C(=O)N(C)C)CC3)cn1)[C@H](CC(C)(C)C)CO2 [Compound 249]

activation at 10 µM (Table 11, at 10 μM): > 60% | pEC50 (Table 11): > 6.00 | Emax [1]: > 60%
SMILES: Cc1cccc(C(C)C)c1-c1cc2nc(n1)NS(=O)(=O)c1cccc(c1)C(=O)N(Cc1ccc(N3CCOCC3)cn1)[C@H](CC(C)(C)C)CO2 [Compound 821]

pEC50 (Table 11): > 6.00 | Emax [1]: > 60%
SMILES: Cc1cccc(C)c1-c1cc2nc(n1)NS(=O)(=O)c1cccc(c1)C(=O)N(Cc1cccc(C3CCC(C)(C)CC3)n1)[C@H](CC(C)(C)C)CO2 [Compound 727]

SMILES: Cc1cccc(C)c1-c1cc2nc(n1)NS(=O)(=O)c1cccc(c1)C(=O)N(Cc1ncc(OC3CCC3)cc1F)[C@H](CC(C)(C)C)CO2 [Compound 1299, (11R)-12-[[5-(Cyclobutoxy)-3-fluoro-2-pyridyl]methyl]-6-(2,6-dimethylphenyl)-11-(2,2-dimethylpropyl)-2,2-dioxo-9-oxa-2λ^6-thia-3,5,12,19-tetrazatricyclo[12.3.1.14,8]nonadeca-1(18),4(19),5,7,14,16-hexaen-13-one]
pEC50 (HBE assay): > 6.00 | Emax [2]: > 60%

pEC50 (Table 11): > 6.00 | Emax [1]: > 60%
SMILES: Cc1cccc(CN2C(=O)c3cccc(c3)S(=O)(=O)Nc3nc(cc(-c4c(C)cccc4C)n3)OC[C@H]2CC(C)(C)C)n1 [Compound 465]

SMILES: Cc1cccc(C)c1-c1cc2nc(n1)NS(=O)(=O)c1cccc(c1)C(=O)N(Cc1ncc(N3C4CCC3CC4)cn1)[C@H](CC(C)(C)C)CO2 [Compound 554]
EC50 (HBE EC50 (μM), Table 12): < 1 µM | Emax [3]: > 60%

pEC50 (HBE assay): > 6.00 | Emax [2]: > 60%
SMILES: CCC(C)Oc1cnc(CN2C(=O)c3cccc(c3)S(=O)(=O)Nc3nc(cc(-c4c(C)cccc4C)n3)OC[C@H]2CC(C)C)nc1 (stereo in doubt) [Compound 1395]

pEC50 (Table 11): 4.52 to 5.52 | Emax [1]: > 60%
SMILES: Cc1cccc(C)c1-c1cc2nc(n1)NS(=O)(=O)c1cccc(c1)C(=O)N(Cc1cccc(N(C(C)C)C(C)C)n1)[C@H](CC(C)(C)C)CO2 [Compound 637]

pEC50 (Table 12): > 6.00 | Emax [3]: > 60%
SMILES: Cc1cccc(C)c1-c1cc2nc(n1)NS(=O)(=O)c1cccc(c1)C(=O)N(Cc1ncc(N3CC(C)(O)C3)cn1)[C@H](CC(C)(C)C)CO2 [Compound 586]

pEC50 (Table 11): > 6.00 | Emax [1]: > 60%
SMILES: CCOc1cccnc1CN1C(=O)c2cccc(c2)S(=O)(=O)Nc2nc(cc(-c3c(C)cccc3C)n2)OC[C@H]1CC(C)(C)C [Compound 742]

SMILES: Cc1cccc(C)c1-c1cc2nc(n1)NS(=O)(=O)c1cccc(c1)C(=O)N(CC1CC(N3CC(C)OC(C)C3)C1)[C@H](CC(C)(C)C)CO2 (stereo partly drawn) [Compound 65, (11R)-12-[[3-(2,6-Dimethylmorpholin-4-yl)cyclobutyl]methyl]-6-(2,6-dimethylphenyl)-11-(2,2-dimethylpropyl)-2,2-dioxo-9-oxa-2λ^6-thia-3,5,12,19-tetrazatricyclo[12.3.1.14,8]nonadeca-1(18),4(19),5,7,14,16-hexaen-13-one]
activation at 10 µM: > 60%

pEC50 (Table 13): 5.52 to 6.00 | Emax (Table 13, read-out: HBE Max Activity (%)): > 60%
SMILES: Cc1cccc(C)c1-c1cc2nc(n1)NS(=O)(=O)c1cccc(c1)C(=O)N(Cc1cccc(N(CCOC(C)C)C(C)C)n1)[C@H](CC(C)(C)C)CO2 [Compound 236]

Emax (Table 10, read-out: HBE Max activity (%)): > 60%
SMILES: Cc1cccc(C)c1-c1cc2nc(n1)NS(=O)(=O)c1cccc(c1)C(=O)N(Cc1ccc(C3=CCN=N3)cc1)[C@H](CC(C)(C)C)CO2 [Compound 289]

activation at 10 µM (Table 13, at 10 μM): > 600%
SMILES: COC(=O)C1CCN(c2ccc(CN3C(=O)c4cccc(c4)S(=O)(=O)Nc4nc(cc(-c5c(C)cccc5C)n4)OC[C@H]3CC(C)(C)C)nc2)CC1 [Compound 255]

pEC50 (Table 12): > 6.00 | Emax [3]: 30 to 60%
SMILES: Cc1cccc(C)c1-c1cc2nc(n1)NS(=O)(=O)c1cccc(c1)C(=O)N(Cc1ccc(N3CCC(C)(C)C3)nn1)[C@H](CC(C)(C)C)CO2 [Compound 238]

pEC50 (Table 12): > 6.00 | Emax [3]: > 60%
SMILES: Cc1cccc(C)c1-c1cc2nc(n1)NS(=O)(=O)c1cccc(c1)C(=O)N(Cc1ncc(OCCOC(C)C)cn1)[C@H](CC(C)(C)C)CO2 [Compound 559]

Reference: US20240150377A1, “MODULATORS OF CYSTIC FIBROSIS TRANSMEMBRANE CONDUCTANCE REGULATOR” (VERTEX PHARMACEUTICALS INCORPORATED, priority 2020, published 2024)
